From patent publication US8614341B2, “Amorphous silibinin for the treatment of viral hepatitis” (Euromed S.A., priority 2009, dated 2013)

Experiments:
[1] = Storage stability of the amorphous state (XRPD assessment); assay type: physicochemical; conditions: single polyethylene bag, 2 months
Experimental: For quantitative XRPD assessment ZnO (XRPD spectrum FIG. 3A) was used as internal standard. Three characteristics peaks of crystalline sylibinin (2-theta: 20.7, 22.3 and 24.5°) were chosen for the quantitative determination of the crystalline form and peaks at 2-theta: 56.6 and 62.8° of the internal standard (IS, ZnO) were used as reference as reported in FIG. 3B.
XRPD spectra were obtained using X'Pert diffractometer from PANalytical, using the following parameters for acquisition and data processing:
Silibinin samples obtained according to the present invention were stored at 4±2° C. at 60% R.H., 25±2° C. at 60±5% R.H. and 40±2° C. at 60±5% R.H., in a single polyethylene bag for 2 months. After this time the samples were analyzed by XRPD.

[2] = Solubility (HPLC - Ph. Eur. 01/2007:2071) after 30 min; assay type: physicochemical
Experimental: A “silibinin release rate of 80% or greater” means that the amorphous silibinin is at least 80% soluble in aqueous solution (standard according to Ph. Eur.).
Several lots of silibinin manufactured according to the method of the invention, including steps L and M, were analyzed using the XRPD method described in example 2.
Solubility of this product (HPLC—Ph. Eur. 01/2007:2071) after 30 min. is higher than 80%. Conversely the silibinin obtained according to the method of the invention without performing steps L and M, though of high chemical purity is mainly crystalline (typically more than 70% crystalline).
Solubility of this product (HPLC—Ph. Eur. 01/2007:2071) after 30 min. is lower than 80%.

## COc1cc(C2Oc3cc(C4Oc5cc(O)cc(O)c5C(=O)C4O)ccc3OC2CO)ccc1O (stereo not drawn) [amorphous silibinin samples, containing about 10% of crystal] [reference compound]
[1]; 25±2° C. at 60±5% R.H.
  stability of amorphous state (XRPD): extended crystallization

## COc1cc(C2Oc3cc(C4Oc5cc(O)cc(O)c5C(=O)C4O)ccc3OC2CO)ccc1O (stereo not drawn) [amorphous silibinin, silibinin]
[2]
  Solubility (HPLC - Ph. Eur. 01/2007:2071): higher than 80%
[1]; 4±2° C. at 60% R.H.
  stability of amorphous state (XRPD): stable
[1]; 25±2° C. at 60±5% R.H.
  stability of amorphous state (XRPD): stable
[1]; 40±2° C. at 60±5% R.H.
  stability of amorphous state (XRPD): stable

## COc1cc(C2Oc3cc(C4Oc5cc(O)cc(O)c5C(=O)C4O)ccc3OC2CO)ccc1O (stereo not drawn) [silibinin obtained without performing steps L and M] [reference compound]
[2]
  Solubility (HPLC - Ph. Eur. 01/2007:2071): lower than 80%
